A short description of the data set: Aqueous solubility. The format is physicochemical. An excerpt:
The compounds used in this invention have a very low solubility in water.

In brackets after ≈: the same amount, converted by molar mass.

One may read the aqueous solubility as the concentration that dissolves in the medium under given conditions. A higher aqueous solubility goes with a readily soluble substance.

Consider `CC(=O)c1ccc2c(c1)[C@H](NC(=O)c1ccc(F)cc1)[C@@H](O)C(C)(C)O2` (relative stereo) [Compound 1, trans-6-acetyl-4S-(4-fluorobenzoylamino)-3,4-dihydro-2,2-dimethyl-2H-1-benzopyran-3R-ol], for which the USP solubility classification entry is on record as “virtually insoluble” and the aqueous solubility stood at 8 µg/mL (≈ 22.4 µM).

The values above are taken from US20030165570A1, “Pharmaceutical compositions containing micronized bicyclic drugs” (SmithKline Beecham p.l.c., priority 1997, published 2003).
